According to US20220016215A1, “GIP RECEPTOR AGONIST PEPTIDE COMPOUNDS AND USES THEREOF” (TAKEDA PHAARMACEUTICAL COMPANY LIMITED, priority 2018, published 2022):
“And” between values parts separate entries of the source, which are not always exact repeats. Equal entries are not always repeated. Marks after values point to notes of the source that are not given here.

Legend:
human GIPR = target: T1, human GIPR (Homo sapiens, UniProt P48546); assay: Agonist activity on human GIPR, CRE-luciferase reporter assay (increase in intracellular cAMP as indicator); assay type: cell-based; conditions: GLP1R EC50 / GIPR EC50
T1 construct: expressed in transfected cells
T1 sequence (P48546 22-466): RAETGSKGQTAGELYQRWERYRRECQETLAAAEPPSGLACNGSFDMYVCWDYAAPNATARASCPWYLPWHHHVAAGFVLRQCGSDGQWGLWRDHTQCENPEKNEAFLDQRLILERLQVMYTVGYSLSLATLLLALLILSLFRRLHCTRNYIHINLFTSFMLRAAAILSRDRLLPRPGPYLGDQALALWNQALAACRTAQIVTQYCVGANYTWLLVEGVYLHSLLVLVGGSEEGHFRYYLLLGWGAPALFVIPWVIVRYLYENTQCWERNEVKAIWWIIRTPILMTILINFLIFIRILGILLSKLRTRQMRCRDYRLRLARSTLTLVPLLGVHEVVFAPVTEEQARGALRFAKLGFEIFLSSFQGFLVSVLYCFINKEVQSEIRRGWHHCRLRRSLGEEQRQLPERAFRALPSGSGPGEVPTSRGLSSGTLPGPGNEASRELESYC
Source text: The human GIPR gene having an identical sequence to Genebank Accession No. U39231 is cloned into a pMSRα-neo vector to prepare hGIPR/pMSRα-neo.
(2) Construction of Reporter Plasmid Expressing Cell
Luciferase reporter gene with a cAMP-responsive sequence located upstream is transferred to a CHO-K1 cell to construct a CRE-LUC/CHO-K1 cell.
(4) Transfer of Human GIPR Gene to CRE-LUC/CHO-K1 Cell and Obtaining of Expressing Cell
The plasmid hGIPR/pMSRα-neo obtained in (1) is transferred to the CRE-LUC/CHO-K1 cell obtained in (2) to obtain a transformant. Subsequently, the cell line inducing the luciferase expression, hGIPR/CRE-LUC/CHO-K1 cell, is selected from the obtained transformant by adding GIP.
25 μL each of the hGIPR/CRE-LUC/CHO-K1 cell is inoculated in a 384-well white plate (Corning) in such a way as to provide 5×10^3 cells/well and may be cultured in a HamF12 medium containing 10% fetal bovine serum, 100 U/mL penicillin, and 100 μg/mL streptomycin in a CO2 incubator at 37° C. overnight. 5 μL of a medium containing a test compound is added to the cells and incubated for 4 hours at the indicated concentration in a CO2 incubator at 37° C. Steady-Glo (Promega) is added in amounts of 30 μL and shaken under light shielding. Twenty minutes later, luciferase activity is measured using a plate reader Envision (PerkinElmer). The GIPR agonist activity is calculated with increase in intracellular cAMP concentration as the indicator when the luciferase activity in the presence of 10 nM of GIP was 100% and the luciferase activity in the case of adding DMSO instead of the test compound was 0%.

[1] = system: morphine (0.6 mg/kg, s.c.)-induced emesis in ferrets; assay: Morphine-induced acute emetic model in male ferrets; assay type: in vivo, ferret; conditions: for Emesis: Duration / Emesis: Frequency / Emesis: No. of animals (responder/used) / Fidget: Duration / Fidget: Frequency / Fidget: No. of animals (responder/used) / Licking: Duration / Licking: Frequency / Licking: No. of animals (responder/used) / Retching: Duration / Retching: Frequency / Retching: No. of animals (responder/used) / Vomiting: Duration / Vomiting: Frequency / Vomiting: No. of animals (responder/used) / Emesis: Latency / Fidget: Latency / Licking: Latency / Retching: Latency / Vomiting: Latency / Retching Latency / Emesis (Retching + Vomiting) Duration / Retching Duration / Vomiting Duration / Fidget Duration / Licking Duration / Retching Frequency / Vomiting Frequency / Emesis (Retching + Vomiting) Latency / Vomiting Latency / Fidget Latency / Licking Latency: ferrets; for Emesis: Latency / Fidget: Latency / Licking: Latency / Retching: Latency / Vomiting: Latency: non-responders counted as 30 min; for Comment: Anti-Emetic Activity (inhibition) on morphine-induced emesis: summary of the morphine experiments; for Retching Latency: morphine (0.6 mg/kg, s.c.) administered 4 h after; for Retching Latency / Emesis (Retching + Vomiting) Duration / Retching Duration / Vomiting Duration / Fidget Duration / Licking Duration / Retching Frequency / Vomiting Frequency / Emesis (Retching + Vomiting) Latency / Vomiting Latency / Fidget Latency / Licking Latency: individual animals and Mean; for Retching Latency / Emesis (Retching + Vomiting) Latency / Vomiting Latency: no emetic response = 30 min; for Emesis (Retching + Vomiting) Duration / Retching Duration / Vomiting Duration / Fidget Duration / Licking Duration / Retching Frequency / Vomiting Frequency / Emesis (Retching + Vomiting) Latency / Vomiting Latency / Fidget Latency / Licking Latency: morphine administered 4 h after; for Emesis (Retching + Vomiting) Duration / Retching Duration / Vomiting Duration: cumulative total duration; for Fidget Latency / Licking Latency: no response = 30 min
Protocol: Example 6—In-Vivo Effect of GIP Receptor Agonist Peptides on Emesis in Morphine Induced Emesis Model in Live Male Ferrets
Effect of subcutaneously administered GIP receptor agonist peptide in morphine-induced acute emetic model.
To evaluate the antiemetic effect, the GIP receptor agonist peptides other than natural human GIP were subcutaneously administered into male ferrets 30 minutes before morphine administration. […]. Up to 60 minutes after morphine administration, the condition of the ferrets was monitored to record the frequencies and time points of abdominal contraction motions, vomiting behaviors, licking with the tongue, and fidgety behavior occurring
Effects of Subcutaneously Administered GIP Receptor Agonist Peptides in Morphine-Induced Acute Emetic Model
30 nmol/kg of Compounds 3 and 5 were dissolved with a vehicle (0.09 w/v % tween 80/10% DMSO/saline), respectively, to prepare test solutions. […] of the test solutions and the vehicle were subcutaneously administered to ferrets (4 in each group), respectively. At the time of each of 4 hours, after administration, 0.6 mg/kg of morphine was subcutaneously administered. […] See results in Tables 6, 7 and 8.
(§1) 10 nmol/kg of each compound dissolved with a vehicle (0.09 w/v % tween 80/10% DMSO/saline) respectively, to prepare test solutions. […] of the test solutions and the vehicle were subcutaneously administered to ferrets (4 in each group), respectively. At the time of each of 4 hours, or 120 hours after administration, 0.6 mg/kg of morphine was subcutaneously administered. Up to 360 minutes after morphine administration, the condition of the ferrets was monitored to record the frequencies and time points of abdominal contraction motions, vomiting behaviors, licking with the tongue, and fidgety behavior occurring.
as §1, with “30 nmol/kg” for “10 nmol/kg”, “80/10% DMSO/saline),respectively,” for “80/10% DMSO/saline) respectively,”

[2] = morphine 0.6 mg/kg s.c. 0.5 h after drug, 106-[…] s.c. (30 nmol/kg)
[3] = morphine 0.6 mg/kg s.c. 4 h after drug, 10 nmol/kg s.c.

## CC[C@H](C)[C@H](NC(=O)[C@H](CO)NC(=O)[C@H](Cc1ccc(O)cc1)NC(=O)[C@H](CC(=O)O)NC(=O)[C@H](CO)NC(=O)[C@@H](NC(=O)[C@H](Cc1ccccc1)NC(=O)[C@@H](NC(=O)CNC(=O)[C@H](CCC(=O)O)NC(=O)[C@H](C)NC(=O)[C@H](Cc1ccc(O)cc1)NC(C)=O)[C@@H](C)O)[C@@H](C)CC)C(=O)N[C@@H](C)C(=O)N[C@@H](CCSC)C(=O)N[C@@H](CC(=O)O)C(=O)N[C@@H](CCCCN)C(=O)N[C@H](C(=O)N[C@@H](Cc1c[nH]cn1)C(=O)N[C@@H](CCC(N)=O)C(=O)N[C@@H](CCC(N)=O)C(=O)N[C@@H](CC(=O)O)C(=O)N[C@@H](Cc1ccccc1)C(=O)N[C@H](C(=O)N[C@@H](CC(N)=O)C(=O)N[C@@H](Cc1c[nH]c2ccccc12)C(=O)N[C@@H](CC(C)C)C(=O)N[C@@H](CC(C)C)C(=O)N[C@@H](C)C(=O)N[C@@H](CCC(N)=O)C(=O)N[C@@H](CCCCN)C(=O)NCC(=O)N[C@@H](CCCCN)C(=O)N[C@@H](CCCCN)C(=O)N[C@@H](CC(N)=O)C(=O)N[C@@H](CC(=O)O)C(=O)N[C@@H](Cc1c[nH]c2ccccc12)C(=O)N[C@@H](CCCCN)C(=O)N[C@@H](Cc1c[nH]cn1)C(=O)N[C@@H](CC(N)=O)C(=O)N[C@H](C(=O)N[C@H](C(=O)N[C@@H](CCC(N)=O)C(=O)O)[C@@H](C)CC)[C@@H](C)CC)C(C)C)[C@@H](C)CC [Compound 1]
Human GIPR
  Selectivity Ratio (B/A): 30,200
[1]; [2]
  Emesis: Duration: 0.0 ± 0.0 min
  Emesis: Frequency: 0.0 ± 0.0
  Emesis: No. of animals (responder/used): 0/4 #
  Fidget: Duration: 0.0 ± 0.0 min
  Fidget: Frequency: 0.0 ± 0.0
  Fidget: No. of animals (responder/used): 0/4
  Licking: Duration: 0.0 ± 0.0 min
  Licking: Frequency: 0.0 ± 0.0
  Licking: No. of animals (responder/used): 0/4 #
  Retching: Duration: 0.0 ± 0.0 min
  Retching: Frequency: 0.0 ± 0.0
  Retching: No. of animals (responder/used): 0/4 #
  Vomiting: Duration: 0.0 ± 0.0 min
  Vomiting: Frequency: 0.0 ± 0.0
  Vomiting: No. of animals (responder/used): 0/4
  Emesis: Latency: 30.0 ± 0.0 min
  Fidget: Latency: 30.0 ± 0.0 min
  Licking: Latency: 30.0 ± 0.0 min
  Retching: Latency: 30.0 ± 0.0 min
  Vomiting: Latency: 30.0 ± 0.0 min
[1]; male ferrets, 30 nmol/kg s.c. 30 minutes before morphine 0.6 mg/kg s.c.
  Attenuation of morphine-induced emesis (in words): completely attenuated
[1]; male ferrets
  Comment: Anti-Emetic Activity (inhibition) on morphine-induced emesis: 100% inhibition

## YAibEGTFISDYSIALDKI(Lys-(ethylene glycol)2-C15 diacid)QQDFVNWLLAQRG-OH [Compound 25]
Human GIPR
  Selectivity Ratio (B/A): >100,000
[1]; 10 nmol/kg s.c.
  Retching Latency: 30 min
  Emesis (Retching + Vomiting) Duration: 0 min (4×) and 0.0 min
  Retching Duration: 0 min
  Vomiting Duration: 0 min
  Fidget Duration: 0 min (4×) and 0.0 min
  Licking Duration: 0 min (4×) and 0.0 min
  Retching Frequency: 0
  Vomiting Frequency: 0
  Emesis (Retching + Vomiting) Latency: 30 min
  Vomiting Latency: 30 min
  Fidget Latency: 30 min (4×) and 30.0 min
  Licking Latency: 30 min (4×) and 30.0 min
[1]; [3]
  Emesis: Duration: 0.0 ± 0.0 min
  Emesis: Frequency: 0.0 ± 0.0
  Emesis: No. of animals (responder/used): 0/4 #
  Fidget: Duration: 0.0 ± 0.0^ min
  Fidget: Frequency: 0.0 ± 0.0
  Fidget: No. of animals (responder/used): 0/4 #
  Licking: Duration: 0.0 ± 0.0^ min
  Licking: Frequency: 0.0 ± 0.0
  Licking: No. of animals (responder/used): 0/4 #
  Retching: Duration: 0.0 ± 0.0 min
  Retching: Frequency: 0.0 ± 0.0
  Retching: No. of animals (responder/used): 0/4 #
  Vomiting: Duration: 0.0 ± 0.0 min
  Vomiting: Frequency: 0.0 ± 0.0
  Vomiting: No. of animals (responder/used): 0/4 #
  Emesis: Latency: 30.0 ± 0.0 min
  Fidget: Latency: 30.0 ± 0.0 min
  Licking: Latency: 30.0 ± 0.0 min
  Retching: Latency: 30.0 ± 0.0 min
  Vomiting: Latency: 30.0 ± 0.0 min
[1]; male ferrets
  Comment: Anti-Emetic Activity (inhibition) on morphine-induced emesis: 100% inhibition

## YAibEGTFISDYSIELDK(Lys-(ethylene glycol)2-C15 diacid)AAQAFIEWLLAQGPSSGAPPPS-NH2 [Compound 20]
Human GIPR
  Selectivity Ratio (B/A): >100,000
[1]; 10 nmol/kg s.c.
  Retching Latency: 30 min
  Emesis (Retching + Vomiting) Duration: 0 min (4×) and 0.0 min
  Retching Duration: 0 min
  Vomiting Duration: 0 min
  Fidget Duration: 0 min (4×) and 0.0 min
  Licking Duration: 0 min (4×) and 0.0 min
  Retching Frequency: 0
  Vomiting Frequency: 0
  Emesis (Retching + Vomiting) Latency: 30 min
  Vomiting Latency: 30 min
  Fidget Latency: 30 min (4×) and 30.0 min
  Licking Latency: 30 min (4×) and 30.0 min
[1]; [3]
  Emesis: Duration: 0.0 ± 0.0 min
  Emesis: Frequency: 0.0 ± 0.0
  Emesis: No. of animals (responder/used): 0/4 #
  Fidget: Duration: 0.0 ± 0.0^ min
  Fidget: Frequency: 0.0 ± 0.0
  Fidget: No. of animals (responder/used): 0/4 #
  Licking: Duration: 0.0 ± 0.0^ min
  Licking: Frequency: 0.0 ± 0.0
  Licking: No. of animals (responder/used): 0/4 #
  Retching: Duration: 0.0 ± 0.0 min
  Retching: Frequency: 0.0 ± 0.0
  Retching: No. of animals (responder/used): 0/4 #
  Vomiting: Duration: 0.0 ± 0.0 min
  Vomiting: Frequency: 0.0 ± 0.0
  Vomiting: No. of animals (responder/used): 0/4 #
  Emesis: Latency: 30.0 ± 0.0 min
  Fidget: Latency: 30.0 ± 0.0 min
  Licking: Latency: 30.0 ± 0.0 min
  Retching: Latency: 30.0 ± 0.0 min
  Vomiting: Latency: 30.0 ± 0.0 min
[1]; male ferrets
  Comment: Anti-Emetic Activity (inhibition) on morphine-induced emesis: 100% inhibition
